Literature values in patent US8758737B2, “Evaporative cooling composition” (priority 2005, dated 2014).

Details: stated as a property of the alcohol (evaporative cooling); temperature not given

vapor pressure | Structure (SMILES)
about 41.0 mmHg | CCO [ethyl alcohol]
310 mmHg | CC(C)O [isopropyl alcohol]
